Results taken from patent publication US20110020312A1, “METHODS FOR TREATMENT OF METABOLIC DISORDERS USING EPIMETABOLIC SHIFTERS, MULTIDIMENSIONAL INTRACELLULAR MOLECULES, OR ENVIRONMENTAL INFLUENCERS” (priority 2009, published 2011).

Tests used:
HepG2 liver cancer cells = assay: ApoStrand ELISA apoptosis assay (single-stranded DNA); type: cell-based
Description: The ApoStrand™ ELISA is based on the sensitivity of DNA in apoptotic cells to formamide denaturation and the detection of the denatured DNA with a monoclonal antibody to single-stranded DNA (ssDNA).

[1] = tested on: Pancreatic Cancer Cells (PaCa2); assay: Real-time PCR Apoptosis Array; type: cell-based; conditions: 100 uM Q10, various times
Experimental: Experiments were carried out essentially as described above.

Caspase 3 = assay: Western blot, Caspase 3 levels; type: cell-based, human
Experimental: The blots were stripped by incubating for 30 minutes with methanol, followed by two 10 minute washes with TBS-T, then 30 minutes of incubation with Stripping buffer at 50 deg C., and followed by two washes with 100 ml or more of TBS-T for 30′ each. The 2 blots were scanned in laser scanner to check for complete stripping. The blots were activated with methanol for 5 seconds, washed with water for 5 minutes, and TBST for 15 minutes. The blots were blocked for 1 hour with 5% blocking reagent in TBS-T at room temperature and then washed 3 times with TBS-T (1×-15′; 2×5′ each) and probed with the antibody for Caspase 3 in 5% BSA (Santacruz Biotechnology # sc7272) at 1:200 dilutions) overnight at 4 deg C. with shaking. After the overnight incubation with primary antibody for Caspase 3, the membranes were washed 3 times with TBS-T (1×-15′; 2×5′ each) and probed with the secondary antibody (antimouse; 1:10,000 dilution) for 1 h on the orbital tilting shaker at room temperature. After 1 h of incubation with secondary antibodies, the blots were washed 3 times with TBS-T (1×-15′; 2×5′ each) and then incubated with ECF reagent for 5 minutes and then each blot scanned with 5100 Fuji Laser scanner at 25 uM resolution, 16 bit, green laser, at 400V and at 500 V.
The samples were processed and the gels were run, transferred, stained and scanned essentially as described above.
The levels of Caspase 3 and actin were determined by probing the blots successively with primary antibodies for Caspase 3 and actin, essentially as described above.
The Actin blots were stripped by incubating for 30 minutes with methanol, followed by two 10 minute washes with TBS-T, then 30 minutes of incubation with Stripping buffer at 50 deg C., and followed by two washes with 100 ml or more of TBS-T for 30′ each. The blots were scanned in laser scanner to check for complete stripping. The blots were activated with methanol for 5 seconds, washed with water for 5 minutes, and TBST for 15 minutes. The blots were blocked for 1 hour with 5% blocking reagent in TBS-T at room temperature and then washed 3 times with TBS-T (1×-15′; 2×5′ each) and probed with the primary antibody for Hif 1 alpha, Caspase 3 or PDHB in 5% BSA (at 1:200 by incubation overnight at 4 deg C. with gentle shaking. The primary antibody for Hif 1 alpha (Abcam ab2185; antirabbit) was at 1:500 dilution in 5% BSA. The primary antibody for Caspase 3 (Santacruz sc7272; antirabbit) was at 1:200 dilution in 5% BSA. The primary antibody for Pyruvate Dehydrogenase beta (PDHB) (Novus Biologicals H00005162-M03; antimouse) was at 1:500 dilution in 5% BSA. After incubation with primary antibodies, the membranes were washed 3 times with TBS-T (1×-15′; 2×5′ each) and probed with the secondary antibody (PDHB antimouse; Hif 1a and Caspase 3 antirabbit; 1:10,000 dilution) for 1 h at room temperature. After 1 h of incubation with secondary antibodies, the blots were washed 3 times with TBS-T (1×-15′; 2×5′ each) and then incubated with ECF reagent for 5 minutes and then each blot scanned with 5100 Fuji Laser scanner at 25 uM resolution, 16 bit, green laser, at 400V and at 500 V.
The Actin blots were stripped by incubating for 30 minutes with methanol, followed by two 10 minute washes with TBS-T, then 30 minutes of incubation with Stripping buffer at 50 deg C., and followed by two washes with 100 ml or more of TBS-T for 30′ each. The blots were activated with methanol for 5 seconds, washed with water for 5 minutes, and TBST for 15 minutes. The blots were blocked for 1 hour with 5% blocking reagent in TBS-T at room temperature and then washed 3 times with TBS-T (1×-15′; 2×5′ each) and probed with the primary antibody for Caspase 3 or MMP-6 in 5% BSA by incubation overnight at 4 deg C. with gentle shaking. The primary antibody for Caspase 3 (Abcam ab44976-100; antirabbit) was at 1:500 dilution in 5% BSA. The primary antibody for MMP-6 (Santacruz scMM0029-ZB5; antimouse) was at 1:100 dilution in 5% BSA. […]

HDFa cells = assay: Oxygen consumption rate (OCR), SeaHorse XF analyzer; type: cell-based, human; conditions: presence of CoQ10
Description: Environmental influencers (e.g., MIMs or Epi-shifters) may also be identified by changes in cellular energetics. One example of the measurement of cellular energetics are the real-time measures of the consumption of molecular oxygen and/or the change in pH of the media of a cell culture. For example, the ability of a potential epi-shifter to modulate the metabolic state of a cell may be analyzed using, for example, the XF24 Analyzer (Seahorse, Inc.). This technology allows for real time detection of oxygen and pH changes in a monolayer of cells in order to evaluate the bioenergetics of a cell microenvironment. The XF24 Analyzer measures and compares the rates of oxygen consumption (OCR), which is a measure of aerobic metabolism, and extracellular acidification (ECAR), which is a measure of glycolysis, both key indicators of cellular energetics.
(SeaHorse Biosciences Inc, North Billerica, Mass.).
In this experiment, the OCR and extracellular acidification rate (ECAR) in normal cells lines were obtained in the presence and absence of CoQ10 to determine baseline values. It was observed that in its native nutrient environment, the basal OCR rates in normal cells lines are different, and are usually a function of the physiological roles of the cells in the body. […]

normal fibroblast = assay: Bcl2 level after co-administration of CoQ-10 and VEGF; type: cell-based; conditions: co-administration with VEGF

## COC1=C(OC)C(=O)C(C/C=C(\C)CC/C=C(\C)CC/C=C(\C)CC/C=C(\C)CC/C=C(\C)CC/C=C(\C)CC/C=C(\C)CC/C=C(\C)CC/C=C(\C)CCC=C(C)C)=C(C)C1=O [Q10, Coenzyme Q10]
HepG2 liver cancer cells; 50 μM Q10
  detectable apoptosis (ApoStrand ELISA): 17%
HepG2 liver cancer cells; 100 μM Q10
  detectable apoptosis (ApoStrand ELISA): 32%
[1]
  genes modulated by Q10 treatment (Apoptosis arrays): ABL1, AKT1, Bcl2L1, BclAF1, CASP1, CASP2, CASP6, CIDEA, FADD, LTA, TNF, TNFSF10A and TNFSF10
Caspase 3; HASMC, 5g48-50
  Caspase 3 Normalized Volume: 766
Caspase 3; HASMC, 5g48-100
  Caspase 3 Normalized Volume: 669
Caspase 3; HASMC, 22G24-50
  Caspase 3 Normalized Volume: 835
Caspase 3; HASMC, 22G24-100
  Caspase 3 Normalized Volume: 865
Caspase 3; HASMC, 22G48-50
  Caspase 3 Normalized Volume: 639
Caspase 3; HASMC, 22G48-100
  Caspase 3 Normalized Volume: 624
Caspase 3; HepG2, 5g24-50, 2 Experiments
  Caspase 3 Normalized Volume as a %: 108%
Caspase 3; HepG2, 5g24-100, 2 Experiments
  Caspase 3 Normalized Volume as a %: 176%
Caspase 3; HepG2, 5g48-50, 2 Experiments
  Caspase 3 Normalized Volume as a %: 144%
Caspase 3; HepG2, 5g48-100, 2 Experiments
  Caspase 3 Normalized Volume as a %: 95%
Caspase 3; HepG2, 22G24-50, 2 Experiments
  Caspase 3 Normalized Volume as a %: 139%
Caspase 3; HepG2, 22G24-100, 2 Experiments
  Caspase 3 Normalized Volume as a %: 178%
Caspase 3; HepG2, 22G48-50, 2 Experiments
  Caspase 3 Normalized Volume as a %: 150%
Caspase 3; HepG2, 22G48-100, 2 Experiments
  Caspase 3 Normalized Volume as a %: 145%
Caspase 3; PACA2, 5g-50, 24 h
  Caspase 3 Normalized Volume: 325
Caspase 3; PACA2, 5g-50, 48 h
  Caspase 3 Normalized Volume: 701
Caspase 3; PACA2, 5g-100, 24 h
  Caspase 3 Normalized Volume: 374
Caspase 3; PACA2, 5g-100, 48 h
  Caspase 3 Normalized Volume: 291
Caspase 3; PACA2, 22G-50, 24 h
  Caspase 3 Normalized Volume: 675
Caspase 3; PACA2, 22G-50, 48 h
  Caspase 3 Normalized Volume: 497
Caspase 3; PACA2, 22G-100, 24 h
  Caspase 3 Normalized Volume: 842
Caspase 3; PACA2, 22G-100, 48 h
  Caspase 3 Normalized Volume: 559
Caspase 3; cancer cells
  levels of caspase 3: increased
Caspase 3; normal cells
  expression of Caspase-3: moderately decreased
HDFa cells
  OCR: influenced OCR
Normal fibroblast
  levels of Bcl2: no effect
